Data from article PMC4757823, “μ Opioid receptor: novel antagonists and structural modeling” (Scientific Reports, 2016).

Key:
human MOR [1] = target: T1, human MOR (Homo sapiens, UniProt P35372); assay: Radioligand MOR binding assay ([3H]DAMGO competition, CHO-hMOR membranes); settings: for inhibition at 10 µM: read-out: inhibition of [3H]DAMGO binding to the MOR
T1 construct: expressed in transfected cells; host or cells: CHO (Chinese hamster ovary) cells stably expressing human MOR; gift from Dr. Lawrence Toll, SRI International

human MOR [2] = target: T1, human MOR; assay: [35S]GTPγS binding assay in CHO-hMOR cell membranes; type: biochemical; settings: for stimulation of [35S]GTPγS binding: CHO-hMOR membranes, agonist mode
Description: Determination of [^35S]GTPγS binding to CHO-hMOR cell membranes were performed as described previously. Cell membranes (5–10 μg protein), prepared as described for the radioligand MOR binding assay, were incubated in the absence or in the presence of test compound in the assay buffer (20 mM HEPES, 100 mM NaCl, 10 mM MgCl2, pH 7.4) containing [^35S]GTPγS (0.05 nM) and GDP (10 nM) in a total volume of 1.0 mL for 60 min at 25 °C. Nonspecific binding was determined using 10 μM GTPγS, and the basal binding was determined in the absence of test compound. Samples were filtered over glass fiber filters and counted as described for the radioligand binding assays. […] The antagonist equilibrium dissociation constant Ke for 4 was calculated using the equation Ke = [a]/(DR − 1), where “a” is the concentration of antagonist. All experiments were performed in duplicate and repeated at least three times.

human MOR [3] = target: T1, human MOR; assay: cAMP accumulation assay (GloSensor) in CHO-hMOR-p22F cells; type: cell-based; settings: for inhibition of the forskolin-stimulated cAMP production: CHO-hMOR-p22F cells, agonist mode
Description: Inhibition of the forskolin-stimulated intracellular cAMP accumulation in CHO cells co-expressing the hMOR and the cAMP biosensor GloSensor-22F (CHO-hMOR-p22F cells) was performed using the Glo-Sensor^TM cAMP assay (Promega), according to the manufacturer’s instructions. Cells were seeded in growth medium into 384-well plates at a density of 5,000 cells in 30 μL per well and incubated overnight. On the day of assay, culture media was removed, and cells were pre-equilibrated for 90 min with 4% v/v of the GloSensor cAMP reagent in reaction medium (20 mM HEPES, 1 × HBSS, pH 7.4) at 37 °C and 5% CO2. […] Forskolin (10 μM) was added to each well, and luminescence was measured after 20 min. All experiments were performed in triplicate and repeated at least three times.

[4] = system: morphine-induced antinociception in mice; assay: Acetic acid-induced writhing test, antagonism of morphine-induced antinociception; type: in vivo, mouse; settings: s.c.
[5] = system: morphine-induced antinociception in mice; assay: Tail-flick test, antagonism of morphine-induced antinociception; type: in vivo, mouse
μ1 receptors = target: μ1 receptors; design: method as in PMID 8069669; settings: lowering radioligand binding; cited from earlier work
μ2 receptors = target: μ2 receptors; design: method as in PMID 8069669; settings: lowering radioligand binding; cited from earlier work
mouse tail-flick test = system: mouse tail-flick test; design: method as in PMID 8069669; settings: cited from earlier work
MOR = settings: concentration of 100 μM; cited from earlier work
[6] = system: μ3 opioid receptor subtype; design: method as in PMID 15580165; settings: human monocytes; cited from earlier work

T1 sequence (P35372 whole entry): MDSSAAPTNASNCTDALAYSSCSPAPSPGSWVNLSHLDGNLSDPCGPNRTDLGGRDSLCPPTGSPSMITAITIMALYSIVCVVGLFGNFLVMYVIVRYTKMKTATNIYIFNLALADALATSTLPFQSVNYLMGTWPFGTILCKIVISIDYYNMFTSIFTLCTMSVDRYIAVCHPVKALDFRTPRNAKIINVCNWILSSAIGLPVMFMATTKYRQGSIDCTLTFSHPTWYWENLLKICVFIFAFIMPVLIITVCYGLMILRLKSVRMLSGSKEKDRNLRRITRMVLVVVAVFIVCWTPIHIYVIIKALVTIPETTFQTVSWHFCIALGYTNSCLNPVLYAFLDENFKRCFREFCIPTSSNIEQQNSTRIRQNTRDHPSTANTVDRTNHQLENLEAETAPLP

| Compound | Ki (human MOR [1]) [µM] | inhibition at 10 µM (human MOR [1]) [%] | stimulation of [35S]GTPγS binding (human MOR [2]) | inhibition of the forskolin-stimulated cAMP production (human MOR [3]) | other results |
| --- | --- | --- | --- | --- | --- |
| Cc1c(NC(=O)c2ccc(Cl)cc2)cc(-c2ccccc2)n1CCCN1CCOCC1 [Compound 3] | 10.7 | ≥ 50 | none of the three ligands produced any increase | not effective |  |
| COc1cc2c(cc1OC)C(C)N(Cc1cc(C)c(O)c(C)c1)CC2 (stereo not drawn) [Compound 4] | 1.11 | ≥ 50 | none of the three ligands produced any increase | not effective | Kb (human MOR [2]; read-out: antagonist equilibrium constant (Ke)): 1.02 ± 0.25 µM; rightward shift in the concentration-response for DAMGO (human MOR [3]; DAMGO inhibition of forskolin-stimulated cAMP accumulation): 3 fold; Kb (human MOR [3]; read-out: Ke): 8.03 ± 0.38 µM; effect on pain behavior when administered alone (chemical sensitivity) ([4]; alone, vs. vehicle): did not affect pain behavior; reversal of morphine analgesia in the writhing test ([4]; given 30 min prior to s.c. morphine): significant and dose-dependent reversal; blockade of morphine's analgesic effect against thermal-induced nociception ([5]; 20 mg/kg s.c. pretreatment, 30 min prior to s.c. morphine): complete blockade; effect on pain behavior when administered alone (thermal sensitivity) ([5]; s.c., alone, vs. vehicle): did not affect pain behavior |
| COc1ccc(S(=O)(=O)N2CCCN(c3c(Cl)cncc3Cl)CC2)cc1OC [Compound 5] | 7.01 | ≥ 50 | none of the three ligands produced any increase | not effective |  |
| COc1ccc(CC2c3cc(OC)c(OC)cc3CCN2C)cc1OC (stereo not drawn) [Laudanosine] |  |  |  |  | Ki (μ1 receptors): 2.7 µM; Ki (μ2 receptors): 13 µM; antinociceptive effects (mouse tail-flick test): exert antinociceptive effects |
| COc1ccc(C[C@H]2c3cc(O)c(OC)cc3CCN2C)cc1O [reticuline] |  |  |  |  | % of morphine effects (MOR): ca. 16%; binding to the μ3 opioid receptor subtype [6]: no binding |
